Data on 1 substance can be found in PMC8772433 (Nature structural & molecular biology, 2021).

In the assay the target is SARS-CoV-2 ORF3a (3a), dimer (Severe acute respiratory syndrome coronavirus 2, UniProt P0DTC3). Description: patch-clamp current recording, excised inside-out patches of 3a-proteoliposomes. It is filed as biochemical. As to conditions: symmetric 150 mM KCl, pH 7.2, -80 mV, room temperature; soy PC proteoliposomes; flickery block at negative potentials. (Patch clamp records ionic current or voltage across a cell membrane.)
Sequence of SARS-CoV-2 ORF3a (3a), dimer (P0DTC3 whole entry): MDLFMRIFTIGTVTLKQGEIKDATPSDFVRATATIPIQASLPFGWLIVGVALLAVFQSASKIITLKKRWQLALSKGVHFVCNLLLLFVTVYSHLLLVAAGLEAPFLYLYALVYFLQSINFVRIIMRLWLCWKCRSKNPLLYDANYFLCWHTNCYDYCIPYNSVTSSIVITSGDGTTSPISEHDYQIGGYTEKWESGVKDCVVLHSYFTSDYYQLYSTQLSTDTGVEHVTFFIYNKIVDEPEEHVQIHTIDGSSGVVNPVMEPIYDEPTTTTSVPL

For Ruthenium Red, the IC50 (commonly the point on the concentration scale where inhibition reaches its midpoint) amounted to 90 ± 10 µM.
